This passage reports T/C results from PubChem BioAssay AID330 (DTP/NCI, 2004).

“And” between values parts separate entries of the source, which are not always exact repeats. Equal values may be shown once. Toxic doses and inconclusive results are not listed.

In the test the test system is P388 leukemia ip, CD2F1 mice, survival T/C. Description: NCI In Vivo Anticancer Drug Screen. Data for tumor model P388 Leukemia (intraperitoneal) in CD2F1 (CDF1) mice. Conditions: endpoint: median survival time, higher = longer survival. Put shortly:
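Mice carrying the transplanted tumor received test compound or vehicle. Survival was recorded in each group, and the value is the treated-group measurement divided by that of the vehicle-treated control group.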

Where [1] appears, read: dose: 25.0 mg/kg/injection, schedule: Q01DX009 (ip), vehicle: Klucel (hydroxypropylcellulose) (HPC).
[2] abbreviates: dose: 50.0 mg/kg/injection, schedule: Q01DX009 (ip), vehicle: Klucel (hydroxypropylcellulose) (HPC).
Where [3] appears, read: dose: 100.0 mg/kg/injection, schedule: Q01DX009 (ip), vehicle: Klucel (hydroxypropylcellulose) (HPC).
The mark [4] stands for this setting: dose: 50.0 mg/kg/injection, schedule: Q01DX009 (ip), vehicle: saline.
Setting [5] is: dose: 100.0 mg/kg/injection, schedule: Q01DX009 (ip), vehicle: saline.
Where [6] appears, read: dose: 200.0 mg/kg/injection, schedule: Q01DX009 (ip), vehicle: Klucel (hydroxypropylcellulose) (HPC).
[7] abbreviates: dose: 50.0 mg/kg/injection, schedule: Q01DX005 (ip), vehicle: Klucel (hydroxypropylcellulose) (HPC).
Setting [8] is: dose: 100.0 mg/kg/injection, schedule: Q01DX005 (ip), vehicle: Klucel (hydroxypropylcellulose) (HPC).
Where [9] appears, read: dose: 100.0 mg/kg/injection, schedule: Q01DX009 (ip), vehicle: saline with Tween-80.
Where [10] appears, read: dose: 200.0 mg/kg/injection, schedule: Q01DX009 (ip), vehicle: saline with Tween-80.
[11] abbreviates: dose: 400.0 mg/kg/injection, schedule: Q01DX009 (ip), vehicle: saline with Tween-80.
Setting [12] is: dose: 12.5 mg/kg/injection, schedule: Q01DX009 (ip), vehicle: saline with Tween-80.
Setting [13] is: dose: 25.0 mg/kg/injection, schedule: Q01DX009 (ip), vehicle: saline with Tween-80.
[14] abbreviates: dose: 50.0 mg/kg/injection, schedule: Q01DX009 (ip), vehicle: saline with Tween-80.
[15] abbreviates: dose: 200.0 mg/kg/injection, schedule: Q01DX009 (ip), vehicle: saline.
The mark [16] stands for this setting: dose: 60.0 mg/kg/injection, schedule: Q01DX005 (ip), vehicle: saline with Tween-80.
[17] abbreviates: dose: 120.0 mg/kg/injection, schedule: Q01DX005 (ip), vehicle: saline with Tween-80.
The mark [18] stands for this setting: dose: 240.0 mg/kg/injection, schedule: Q01DX005 (ip), vehicle: saline with Tween-80.
The mark [19] stands for this setting: dose: 12.5 mg/kg/injection, schedule: Q01DX005 (ip), vehicle: saline.
Where [20] appears, read: dose: 25.0 mg/kg/injection, schedule: Q01DX005 (ip), vehicle: saline.
The mark [21] stands for this setting: dose: 50.0 mg/kg/injection, schedule: Q01DX005 (ip), vehicle: saline.

For `CC1(C)OS(=O)(=O)C=C1Br`, the T/C was 96 % of control (dose: 100.0 mg/kg/injection, schedule: Q04DX003 (ip), vehicle: saline); 110 % of control (dose: 200.0 mg/kg/injection, schedule: Q04DX003 (ip), vehicle: saline); 103 % of control (dose: 400.0 mg/kg/injection, schedule: Q04DX003 (ip), vehicle: saline).

Consider `CC[PH+](CC)CC.[Cl][Au]`, for which the T/C was 100 % of control (dose: 1.25 mg/kg/injection, schedule: Q01DX009 (ip), vehicle: Klucel (hydroxypropylcellulose) (HPC)); 99 % of control and 121 % of control (dose: 2.5 mg/kg/injection, schedule: Q01DX009 (ip), vehicle: Klucel (hydroxypropylcellulose) (HPC)); 114 % of control (2×) and 123 % of control (dose: 5.0 mg/kg/injection, schedule: Q01DX009 (ip), vehicle: Klucel (hydroxypropylcellulose) (HPC)); 124 % of control (dose: 10.0 mg/kg/injection, schedule: Q01DX009 (ip), vehicle: Klucel (hydroxypropylcellulose) (HPC)).

In the case of `COC(=O)CC1(C(=O)OC)C2=C(CCC2)N2CCCC21` (stereo unspecified), the T/C (dose: 12.5 mg/kg/injection, schedule: Q01DX009 (ip), vehicle: Klucel (hydroxypropylcellulose) (HPC)) is 101 % of control; the T/C under setting [1] was 103 % of control; the T/C under setting [2] was 97 % of control; the T/C under setting [3] is 93 % of control.

For the molecule `COS(C)=O` (stereo unspecified), the T/C under setting [4] is 99 % of control and the T/C under setting [5] was 99 % of control.

`O=C1NCC(N2C(=O)CC3(CCCC3)C2=O)O1` (stereo unspecified): the T/C was 100 % of control under setting [2], 94 % of control under setting [3] and 91 % of control under setting [6].

As for `CC1CN(C(=O)Nc2ccc(Cl)c(Cl)c2)C(=O)O1` (stereo unspecified), the T/C reads like this: (dose: 100.0 mg/kg/injection, schedule: Q04DX003 (ip), vehicle: Klucel (hydroxypropylcellulose) (HPC)) 101 % of control; (dose: 200.0 mg/kg/injection, schedule: Q04DX003 (ip), vehicle: Klucel (hydroxypropylcellulose) (HPC)) 99 % of control; (dose: 400.0 mg/kg/injection, schedule: Q04DX003 (ip), vehicle: Klucel (hydroxypropylcellulose) (HPC)) 100 % of control.

Regarding `COc1ccc(CCNC(=O)CC2CCN(Cc3ccccc3)CC2)cc1OC`, the T/C is, setting by setting: under setting [7], 100 % of control; under setting [8], 100 % of control; (dose: 200.0 mg/kg/injection, schedule: Q01DX005 (ip), vehicle: Klucel (hydroxypropylcellulose) (HPC)) 95 % of control.

Regarding `CC1(CCOCc2ccccc2)NC(=O)NC1=O` (stereo unspecified), the T/C was 90 % of control under setting [9], 100 % of control under setting [10] and 100 % of control under setting [11].

In the case of `CC(C)(/C=N/O)N1CC=CCC1`, the T/C is, setting by setting: (dose: 12.5 mg/kg/injection, schedule: Q04DX002 (ip), vehicle: saline with Tween-80) 101 % of control; (dose: 25.0 mg/kg/injection, schedule: Q04DX002 (ip), vehicle: saline with Tween-80) 100 % of control; (dose: 50.0 mg/kg/injection, schedule: Q04DX002 (ip), vehicle: saline with Tween-80) 97 % of control.

In the case of `Fc1ccc(N2C(Cl)(Cl)C23c2ccccc2-c2ccccc23)cc1`, the T/C by setting is: under setting [12], 104 % of control; under setting [13], 103 % of control; under setting [14], 94 % of control; under setting [9], 103 % of control; under setting [10], 112 % of control.

With `COc1cc2c3c(cccc3c1)C(=O)N(CCN(C)C)C2=O`, the T/C (dose: 9.5 mg/kg/injection, schedule: Q01DX009 (ip), vehicle: saline with Tween-80) was 110 % of control.

In the case of `O=C(CBr)Oc1ccc([N+](=O)[O-])cc1`, the T/C runs as follows: (dose: 50.0 mg/kg/injection, schedule: Q01DX005 (ip), vehicle: saline with Tween-80) 102 % of control; (dose: 100.0 mg/kg/injection, schedule: Q01DX005 (ip), vehicle: saline with Tween-80) 100 % of control; (dose: 200.0 mg/kg/injection, schedule: Q01DX005 (ip), vehicle: saline with Tween-80) 100 % of control.

With `CCOC(=O)NC1CCC2(C)CCCCC2C1` (stereo unspecified), the T/C was 100 % of control under setting [4], 97 % of control under setting [5] and 109 % of control under setting [15].

As for `O=C(O)CNCC(=O)O`, the T/C was 94 % of control (dose: 12.5 mg/kg/injection, schedule: Q01DX009 (ip), vehicle: saline); 99 % of control (dose: 25.0 mg/kg/injection, schedule: Q01DX009 (ip), vehicle: saline); 93 % of control under setting [4]; 100 % of control and 98 % of control under setting [5]; 100 % of control under setting [15]; 90 % of control (dose: 400.0 mg/kg/injection, schedule: Q01DX009 (ip), vehicle: saline).

`C[CH2][Sn]([CH2]C)[CH2]C.C[CH2][Sn]([CH2]C)[CH2]C`: the T/C is, setting by setting: (dose: 12.5 mg/kg/injection, schedule: Q01DX005 (ip), vehicle: Klucel (hydroxypropylcellulose) (HPC)) 105 % of control and 97 % of control; (dose: 25.0 mg/kg/injection, schedule: Q01DX005 (ip), vehicle: Klucel (hydroxypropylcellulose) (HPC)) 101 % of control and 114 % of control; under setting [7], 110 % of control and 97 % of control; under setting [8], 113 % of control.

Consider `COc1cccc2c1C(=O)c1c(O)c3c(c(O)c1C2=O)CC(O)(C(=O)CO)CC3OC1CC(N)C(I)C(C)O1` (stereo unspecified), for which the T/C is, setting by setting: (dose: 5.0 mg/kg/injection, schedule: Q01DX001 (ip), vehicle: saline) 165 % of control and 170 % of control; (dose: 7.5 mg/kg/injection, schedule: Q01DX001 (ip), vehicle: saline) 167 % of control and 191 % of control; (dose: 11.2 mg/kg/injection, schedule: Q01DX001 (ip), vehicle: saline) 208 % of control and 212 % of control; (dose: 16.8 mg/kg/injection, schedule: Q01DX001 (ip), vehicle: saline) 220 % of control; (dose: 25.2 mg/kg/injection, schedule: Q01DX001 (ip), vehicle: saline) 234 % of control.

With `C/C(=N\Oc1ncc([N+](=O)[O-])c(O/N=C(\C)c2ccccc2)n1)c1ccccc1`, the T/C under setting [16] is 100 % of control, the T/C under setting [17] is 88 % of control and the T/C under setting [18] was 91 % of control.

Consider `C[C@@H]1CC(=O)C[C@H]2CCCCN21`, for which the T/C reads like this: under setting [19], 102 % of control; under setting [20], 103 % of control; under setting [21], 105 % of control.

Regarding `COC(=O)CC/C=N/NC(N)=O`, the T/C reads like this: under setting [4], 96 % of control; under setting [5], 114 % of control; under setting [15], 114 % of control.

Consider `Clc1ccc(Nc2ncnc3oc(-c4ccccc4)c(-c4ccccc4)c23)cc1`, for which the T/C runs as follows: under setting [16], 100 % of control; under setting [17], 97 % of control; under setting [18], 90 % of control.

For `CCCC(C#N)OC(=O)c1ccccc1` (stereo unspecified), the T/C under setting [12] is 104 % of control, the T/C under setting [13] was 100 % of control and the T/C under setting [14] was 104 % of control.

On to `Nc1nc(Br)c2[nH]cnc2n1`, for which the T/C was 110 % of control under setting [9]; 118 % of control (dose: 100.0 mg/kg/injection, schedule: Q04DX003 (ip), vehicle: saline with Tween-80); 120 % of control under setting [10]; 113 % of control (dose: 200.0 mg/kg/injection, schedule: Q04DX003 (ip), vehicle: saline with Tween-80); 90 % of control under setting [11]; 109 % of control (dose: 400.0 mg/kg/injection, schedule: Q04DX003 (ip), vehicle: saline with Tween-80).

As for `CCN(CC)CCCNc1ccc(C)c2sc3ccccc3c(=O)c12`, the T/C was 100 % of control under setting [19]; 109 % of control under setting [20]; 99 % of control and 114 % of control under setting [21].

In the case of `CC(=O)OC1SC(OC(C)=O)C2OC(=O)OC12` (stereo unspecified), the T/C reads like this: under setting [14], 101 % of control; under setting [9], 108 % of control; under setting [10], 100 % of control.

`CCOC(=O)C(CC)Oc1cccc2c1oc1ccccc12` (stereo unspecified): the T/C is 103 % of control under setting [1], 106 % of control under setting [2], 101 % of control under setting [3] and 109 % of control under setting [6].
